From ChEMBL document CHEMBL1641527, “Design and synthesis of aryl ether and sulfone hydroxamic acids as potent histone deacetylase (HDAC) inhibitors” (Bioorg Med Chem Lett, 2011)

Experiment: Inhibition of HDAC by [3H]acetate-radiolabelled peptide substrate assay with scintillation counting

SMILES	IC50 [nM]
CC(/C=C/C(=O)O)=C\COc1ccc(C(C)C)cc1	> 1000
COc1cccc(S(=O)(=O)C(C)/C=C(C)/C=C/C(=O)NO)c1 (stereo not drawn)	> 1000
CC(/C=C/C(=O)O)=C\C(C)S(=O)(=O)c1ccc(F)cc1 (stereo not drawn)	> 1000
CC(=O)Nc1ccc(S(=O)(=O)C(C)/C=C(C)/C=C/C(=O)NO)cc1 (stereo not drawn)	> 1000
CC(/C=C/C(=O)NO)=C\C(C)S(=O)(=O)c1ccc(Cl)c(Cl)c1 (stereo not drawn)	> 1000
CC(/C=C/C(=O)O)=C\C(C)Oc1cccc(Cc2ccccc2)c1 (stereo not drawn)	> 50000
CC(/C=C/C(=O)O)=C\COc1cccc(-c2ccccc2)c1	> 1000
CCCCCCOc1ccc(OC(C)/C=C(C)/C=C/C(=O)O)cc1 (stereo not drawn)	> 1000
CC(/C=C/C(=O)NO)=C\C(C)S(=O)(=O)c1cnc2cc(C)ccc2c1 (stereo not drawn)	> 1000
CC(/C=C/C(=O)O)=C\C(C)Oc1ccc(C(C)C)cc1 (stereo not drawn)	> 50000
CC(/C=C/C(=O)O)=C\C(C)Oc1cccc(C(F)(F)F)c1 (stereo not drawn)	> 50000
CC(/C=C/C(=O)O)=C\C(C)S(=O)(=O)c1ccc(Cl)cc1 (stereo not drawn)	> 1000
CC(=O)c1ccc(OC(C)/C=C(C)/C=C/C(=O)NO)cc1 (stereo not drawn)	> 50000
COc1ccc(OC/C=C(C)/C=C/C(=O)O)cc1	> 1000
CC(/C=C/C(=O)O)=C\COc1cccc2c1CCCC2	> 1000
CC(/C=C/C(=O)NO)=C\C(C)S(=O)(=O)c1cn(C)cn1 (stereo not drawn)	> 1000
CC(/C=C/C(=O)O)=C\C(C)Oc1cccc2c1CCCC2 (stereo not drawn)	> 50000
CC(/C=C/C(=O)O)=C\C(C)Oc1cccc(Cl)c1 (stereo not drawn)	> 1000
CC(/C=C/C(=O)NO)=C\C(C)S(=O)(=O)c1nc(C)cc(C)n1 (stereo not drawn)	> 1000
CC(/C=C/C(=O)O)=C\C(C)Oc1cccc(-c2ccccc2)c1 (stereo not drawn)	> 1000

The next lines start with the values.

IC50 [nM]	SMILES
> 1000	COc1ccc(S(=O)(=O)C(C)/C=C(C)/C=C/C(=O)NO)cc1 (stereo not drawn)
> 1000	CC(/C=C/C(=O)NO)=C\C(C)S(=O)(=O)c1ccc(Br)cc1 (stereo not drawn)
> 1000	CC(/C=C/C(=O)O)=C\C(C)S(=O)(=O)c1ccc(C)cc1C (stereo not drawn)
> 1000	CC(/C=C/C(=O)O)=C\C(C)S(=O)(=O)c1ccc(C)c(C)c1 (stereo not drawn)
> 1000	CC(/C=C/C(=O)O)=C\C(C)Oc1ccc(Br)cc1Br (stereo not drawn)
1100	CCCCCCOc1ccc(OC(C)/C=C(C)/C=C/C(=O)NO)cc1 (stereo not drawn)
> 1000	CC(/C=C/C(=O)NO)=C\C(C)S(=O)(=O)c1ccc(C)cc1 (stereo not drawn)
> 1000	CC(/C=C/C(=O)O)=C\C(C)S(=O)(=O)c1ccc(Br)cc1 (stereo not drawn)
1200	CC(/C=C/C(=O)NO)=C\COc1cccc(Cc2ccccc2)c1
162	CC(/C=C/C(=O)NO)=C\C(C)Oc1ccc(-c2ccc(Br)cc2)cc1 (stereo not drawn)
890	CC(/C=C/C(=O)NO)=C\COc1ccc(Br)cc1Br
41	CC(/C=C/C(=O)NO)=C\COc1cccc(-c2ccccc2)c1
188	CC(/C=C/C(=O)NO)=C\COc1cccc(Cl)c1
18	CC(/C=C/C(=O)NO)=C\COc1cccc(C(F)(F)F)c1
55	CC(/C=C/C(=O)NO)=C\C(C)Oc1cccc(-c2ccccc2)c1 (stereo not drawn)
68	COc1ccc(OC/C=C(C)/C=C/C(=O)NO)cc1
20	COc1ccc2ccc(OC/C=C(C)/C=C/C(=O)NO)cc2c1
3	CC(/C=C/C(=O)NO)=C\[C@@H](C)C(=O)c1ccc(N(C)C)cc1 [TRICHOSTATIN]
